# From publication PMC7176092, “Development of the first in vivo GPR17 ligand through an iterative drug discovery pipeline: A novel disease-modifying strategy for multiple sclerosis” (PLoS ONE, 2020)
# Where “and” joins values, the source holds several entries; their conditions need not be identical. Identical values can stand only once. Like-named read-outs stand apart in the source and are kept apart here.
# Tests used:
# [1] = target: CCR8 (Homo sapiens, UniProt P51685); test: Cellular functional assay CCR8
# [2] = target: T1, mGluR1 (Homo sapiens, UniProt Q13255); test: Binding assay mGluR1; conditions: 100 nM
# T1 construct: Eurofins Cerep (external service)
# [3] = target: T2, CCR2 (Homo sapiens, UniProt P41597); test: Binding assay CCR2; conditions: 100 nM
# T2 construct: Eurofins Cerep (external service)
# [4] = target: T3, CCR4 (Homo sapiens, UniProt P51679); test: Cellular functional assay CCR4
# T3 sequence (P51679 1-360): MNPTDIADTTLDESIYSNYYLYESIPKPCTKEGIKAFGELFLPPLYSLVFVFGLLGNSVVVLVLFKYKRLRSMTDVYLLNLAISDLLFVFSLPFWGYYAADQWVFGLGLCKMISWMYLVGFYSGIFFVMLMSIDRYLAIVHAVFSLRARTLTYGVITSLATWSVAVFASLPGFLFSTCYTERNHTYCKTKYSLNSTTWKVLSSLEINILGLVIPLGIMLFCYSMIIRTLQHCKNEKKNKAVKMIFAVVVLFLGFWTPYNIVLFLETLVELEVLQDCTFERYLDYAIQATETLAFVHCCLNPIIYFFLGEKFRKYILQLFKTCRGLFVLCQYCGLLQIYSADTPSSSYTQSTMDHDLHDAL
# [5] = target: T4, M3 (Homo sapiens, UniProt P20309); test: Binding assay M3; conditions: 100 nM
# T4 construct: Eurofins Cerep (external service)
# [6] = test system: P2Y; test: Binding assay P2Y; parameters: species or system human; conditions: 100 nM
# [7] = target: CCR5 (Homo sapiens, UniProt P51681); test: Cellular functional assay CCR5
# [8] = target: T5, CysLT1 (Homo sapiens, UniProt Q9Y271); test: Binding assay CysLT1; conditions: 100 nM
# T5 construct: Eurofins Cerep (external service)
# T5 sequence (Q9Y271 1-337): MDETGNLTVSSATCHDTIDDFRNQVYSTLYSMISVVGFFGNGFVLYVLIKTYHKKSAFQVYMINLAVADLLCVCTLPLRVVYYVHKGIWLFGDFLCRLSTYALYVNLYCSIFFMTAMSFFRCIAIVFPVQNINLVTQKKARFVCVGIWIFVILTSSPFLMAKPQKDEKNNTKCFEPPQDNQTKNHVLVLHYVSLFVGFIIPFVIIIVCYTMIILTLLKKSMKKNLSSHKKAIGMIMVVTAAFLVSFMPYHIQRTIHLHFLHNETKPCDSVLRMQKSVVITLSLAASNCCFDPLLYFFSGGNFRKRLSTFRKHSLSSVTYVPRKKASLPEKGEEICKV
# [9] = target: T6, CCR10 (Homo sapiens, UniProt P46092); test: Cellular functional assay CCR10
# T6 sequence (P46092 1-362): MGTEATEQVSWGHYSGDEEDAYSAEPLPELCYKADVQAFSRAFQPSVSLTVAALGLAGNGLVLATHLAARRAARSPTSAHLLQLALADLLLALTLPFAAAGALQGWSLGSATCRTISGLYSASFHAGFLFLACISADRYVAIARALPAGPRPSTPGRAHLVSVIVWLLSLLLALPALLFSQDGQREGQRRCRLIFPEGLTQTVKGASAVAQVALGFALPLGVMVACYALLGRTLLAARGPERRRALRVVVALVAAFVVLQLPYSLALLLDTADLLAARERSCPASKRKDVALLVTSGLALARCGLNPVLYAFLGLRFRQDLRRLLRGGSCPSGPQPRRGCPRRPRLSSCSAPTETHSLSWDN
# [10] = target: T7, mGluR5 (Homo sapiens, UniProt P41594); test: Binding assay mGluR5; conditions: 100 nM
# T7 construct: Eurofins Cerep (external service)
# [11] = target: T8, CXCR2 (Homo sapiens, UniProt P25025); test: Binding assay CXCR2; conditions: 100 nM
# T8 construct: Eurofins Cerep (external service)
# T8 sequence (P25025 1-360): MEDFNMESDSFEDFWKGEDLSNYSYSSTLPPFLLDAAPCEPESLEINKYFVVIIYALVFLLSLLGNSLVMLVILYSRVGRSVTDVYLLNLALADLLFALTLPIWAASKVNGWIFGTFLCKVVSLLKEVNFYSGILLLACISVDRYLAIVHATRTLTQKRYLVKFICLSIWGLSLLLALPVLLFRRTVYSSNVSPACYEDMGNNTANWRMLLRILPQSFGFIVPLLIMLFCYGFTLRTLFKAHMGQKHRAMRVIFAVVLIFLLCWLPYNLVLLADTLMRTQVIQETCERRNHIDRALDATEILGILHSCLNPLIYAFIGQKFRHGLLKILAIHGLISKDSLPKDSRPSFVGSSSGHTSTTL
# [12] = antagonist effect, 100 nM, single replicates 1st and 2nd, 0.1 µM
# [13] = read-out: % Inhibition of control agonist response
# [14] = read-out: Agonist Response (% of Control), Mean, antagonist effect, 100 nM, mean of 2
# [15] = mean of 2, read-out: % Of control specific binding, Mean
# [16] = read-out: % Inhibition of control specific binding
# [17] = single replicates 1 and 2, 0.1 µM
# [18] = single replicates 1 and 2, read-out: % Of control specific binding
# T1 sequence (Q13255 19-1194): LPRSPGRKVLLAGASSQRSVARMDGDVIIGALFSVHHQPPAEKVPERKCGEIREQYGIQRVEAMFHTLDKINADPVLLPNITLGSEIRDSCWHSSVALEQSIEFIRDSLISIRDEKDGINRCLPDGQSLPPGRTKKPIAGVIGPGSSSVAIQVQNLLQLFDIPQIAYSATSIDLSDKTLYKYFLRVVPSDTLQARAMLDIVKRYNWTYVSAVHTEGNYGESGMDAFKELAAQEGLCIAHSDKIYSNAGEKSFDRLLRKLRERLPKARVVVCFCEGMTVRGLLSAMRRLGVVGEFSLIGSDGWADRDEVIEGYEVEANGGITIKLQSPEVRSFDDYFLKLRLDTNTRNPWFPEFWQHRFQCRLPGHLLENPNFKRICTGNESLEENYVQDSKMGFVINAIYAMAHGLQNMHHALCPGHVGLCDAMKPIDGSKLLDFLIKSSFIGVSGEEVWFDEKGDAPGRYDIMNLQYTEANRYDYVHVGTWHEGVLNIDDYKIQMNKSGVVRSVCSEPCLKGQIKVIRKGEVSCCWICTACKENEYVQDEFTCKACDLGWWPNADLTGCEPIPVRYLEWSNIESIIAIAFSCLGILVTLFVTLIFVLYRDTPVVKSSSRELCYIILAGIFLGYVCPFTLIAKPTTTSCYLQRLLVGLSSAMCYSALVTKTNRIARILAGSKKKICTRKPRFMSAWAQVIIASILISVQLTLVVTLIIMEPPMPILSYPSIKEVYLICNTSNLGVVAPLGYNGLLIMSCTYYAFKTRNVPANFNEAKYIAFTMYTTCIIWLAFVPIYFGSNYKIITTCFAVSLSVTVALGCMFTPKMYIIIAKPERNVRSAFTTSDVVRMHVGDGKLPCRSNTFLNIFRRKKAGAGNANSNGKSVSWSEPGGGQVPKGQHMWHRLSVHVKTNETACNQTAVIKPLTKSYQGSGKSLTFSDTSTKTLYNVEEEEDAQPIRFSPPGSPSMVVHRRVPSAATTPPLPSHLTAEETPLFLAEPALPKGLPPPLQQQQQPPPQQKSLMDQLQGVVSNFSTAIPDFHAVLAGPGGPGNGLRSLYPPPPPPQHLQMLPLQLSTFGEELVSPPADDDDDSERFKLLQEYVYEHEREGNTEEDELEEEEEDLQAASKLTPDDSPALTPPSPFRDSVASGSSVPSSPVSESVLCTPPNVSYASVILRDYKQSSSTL
# Sequence of CCR8 (P51685 whole entry): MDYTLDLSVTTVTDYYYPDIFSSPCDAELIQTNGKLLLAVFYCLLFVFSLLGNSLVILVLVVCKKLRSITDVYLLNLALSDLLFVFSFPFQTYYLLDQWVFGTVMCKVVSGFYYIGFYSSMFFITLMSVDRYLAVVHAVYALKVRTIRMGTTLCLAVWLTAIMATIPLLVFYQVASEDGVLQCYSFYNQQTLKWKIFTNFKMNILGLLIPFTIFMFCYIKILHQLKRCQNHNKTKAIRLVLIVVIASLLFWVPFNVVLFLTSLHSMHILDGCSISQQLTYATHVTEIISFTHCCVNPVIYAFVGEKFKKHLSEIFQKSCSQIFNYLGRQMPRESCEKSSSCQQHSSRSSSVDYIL
# T4 sequence (P20309 whole entry): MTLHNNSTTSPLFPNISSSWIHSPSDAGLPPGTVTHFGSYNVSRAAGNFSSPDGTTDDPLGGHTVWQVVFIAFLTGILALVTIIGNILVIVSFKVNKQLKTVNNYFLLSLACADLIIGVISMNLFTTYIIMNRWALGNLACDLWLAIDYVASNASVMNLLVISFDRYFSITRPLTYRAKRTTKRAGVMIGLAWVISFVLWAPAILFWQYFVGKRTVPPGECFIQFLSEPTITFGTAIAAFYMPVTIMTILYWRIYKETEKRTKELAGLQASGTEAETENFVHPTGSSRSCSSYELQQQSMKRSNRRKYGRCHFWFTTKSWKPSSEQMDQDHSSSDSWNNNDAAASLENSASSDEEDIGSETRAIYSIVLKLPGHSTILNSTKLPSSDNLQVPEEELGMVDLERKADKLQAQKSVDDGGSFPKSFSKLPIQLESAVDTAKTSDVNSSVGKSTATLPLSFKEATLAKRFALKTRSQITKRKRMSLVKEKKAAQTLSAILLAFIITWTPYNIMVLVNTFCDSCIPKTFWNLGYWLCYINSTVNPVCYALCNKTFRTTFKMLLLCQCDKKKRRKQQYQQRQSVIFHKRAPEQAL
# T7 sequence (P41594 21-1212): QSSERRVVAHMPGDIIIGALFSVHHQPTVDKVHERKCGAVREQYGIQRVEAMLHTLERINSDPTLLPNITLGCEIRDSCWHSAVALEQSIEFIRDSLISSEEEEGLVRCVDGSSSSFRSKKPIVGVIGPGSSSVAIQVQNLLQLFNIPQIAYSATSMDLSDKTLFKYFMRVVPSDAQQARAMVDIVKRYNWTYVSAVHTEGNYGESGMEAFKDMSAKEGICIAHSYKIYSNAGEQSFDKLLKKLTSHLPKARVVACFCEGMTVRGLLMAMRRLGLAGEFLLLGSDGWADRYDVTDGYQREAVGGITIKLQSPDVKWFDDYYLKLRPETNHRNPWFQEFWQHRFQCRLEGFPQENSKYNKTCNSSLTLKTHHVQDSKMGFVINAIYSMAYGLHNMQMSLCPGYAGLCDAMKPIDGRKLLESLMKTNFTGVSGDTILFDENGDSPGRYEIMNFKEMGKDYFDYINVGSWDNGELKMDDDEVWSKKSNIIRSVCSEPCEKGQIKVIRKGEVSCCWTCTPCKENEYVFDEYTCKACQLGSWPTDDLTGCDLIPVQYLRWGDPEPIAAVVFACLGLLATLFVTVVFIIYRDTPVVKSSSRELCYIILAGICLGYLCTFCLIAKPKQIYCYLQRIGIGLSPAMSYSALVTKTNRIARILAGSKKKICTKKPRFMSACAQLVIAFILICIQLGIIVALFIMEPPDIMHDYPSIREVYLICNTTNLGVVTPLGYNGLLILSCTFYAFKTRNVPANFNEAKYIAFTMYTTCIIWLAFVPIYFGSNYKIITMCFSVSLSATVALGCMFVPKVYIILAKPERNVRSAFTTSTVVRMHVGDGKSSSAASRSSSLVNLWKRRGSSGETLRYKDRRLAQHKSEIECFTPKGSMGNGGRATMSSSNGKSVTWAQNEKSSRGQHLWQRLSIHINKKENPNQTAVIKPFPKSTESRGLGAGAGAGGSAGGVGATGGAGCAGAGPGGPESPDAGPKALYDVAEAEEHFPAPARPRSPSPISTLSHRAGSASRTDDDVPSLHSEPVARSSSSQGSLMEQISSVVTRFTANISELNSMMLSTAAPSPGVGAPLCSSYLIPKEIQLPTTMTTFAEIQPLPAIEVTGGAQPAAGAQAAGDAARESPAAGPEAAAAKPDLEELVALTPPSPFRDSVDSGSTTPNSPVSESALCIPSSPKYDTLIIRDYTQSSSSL
# Sequence of CCR5 (P51681 whole entry): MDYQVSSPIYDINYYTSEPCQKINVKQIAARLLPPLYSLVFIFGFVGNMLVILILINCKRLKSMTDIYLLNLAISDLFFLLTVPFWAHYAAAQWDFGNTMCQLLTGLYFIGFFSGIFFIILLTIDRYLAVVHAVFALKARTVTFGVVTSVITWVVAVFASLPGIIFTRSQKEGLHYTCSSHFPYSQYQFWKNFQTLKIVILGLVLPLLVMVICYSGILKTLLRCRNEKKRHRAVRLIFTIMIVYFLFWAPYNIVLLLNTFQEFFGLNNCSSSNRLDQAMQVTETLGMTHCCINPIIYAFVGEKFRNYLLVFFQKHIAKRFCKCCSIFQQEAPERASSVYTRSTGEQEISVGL
# T2 sequence (P41597 whole entry): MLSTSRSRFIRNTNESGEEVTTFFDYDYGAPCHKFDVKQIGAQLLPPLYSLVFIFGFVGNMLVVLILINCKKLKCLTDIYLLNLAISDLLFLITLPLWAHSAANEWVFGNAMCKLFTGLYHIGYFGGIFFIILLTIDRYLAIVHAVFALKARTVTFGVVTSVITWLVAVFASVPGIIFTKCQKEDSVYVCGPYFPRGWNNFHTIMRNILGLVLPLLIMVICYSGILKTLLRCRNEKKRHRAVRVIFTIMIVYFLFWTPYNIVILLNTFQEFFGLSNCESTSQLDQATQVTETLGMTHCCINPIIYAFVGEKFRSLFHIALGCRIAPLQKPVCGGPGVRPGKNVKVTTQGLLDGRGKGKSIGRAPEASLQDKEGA
smiles,measurement,setting,value
Cc1ccc(-c2nnc(SCC(=O)Nc3nccs3)[nH]2)cc1 [Compound 9],Agonist Response (% of Control),[1]; [12],116.9% and 80.2%
same,inhibition at 0.1 µM,[1]; [13],2%
same,activity at 0.1 µM,[1]; [14],98.5%
same,remaining activity at 0.1 µM,[2]; [15],114%
same,inhibition at 0.1 µM,[2]; [16],-14%
same,% Of control specific binding,[2]; [17],103.5% and 124.2%
same,remaining activity at 0.1 µM,[3]; [15],88.4%
same,inhibition at 0.1 µM,[3]; [16],12%
same,% Of control specific binding,[3]; [17],88.9%
same,remaining activity at 0.1 µM,[3]; [18],88%
same,Agonist Response (% of Control),[4]; [12],60.7% and 88.2%
same,inhibition at 0.1 µM,[4]; [13],-0.1%
same,activity at 0.1 µM,[4]; [14],74.4%
same,remaining activity at 0.1 µM,[5]; [15],106%
same,inhibition at 0.1 µM,[5]; [16],-6%
same,% Of control specific binding,[5]; [17],110.4%
same,remaining activity at 0.1 µM,[5]; [18],101%
same,% Inhibition of control specific binding,[6],-28%
same,"% Of control specific binding, Mean",[6]; mean of 2,128.2%
same,% Of control specific binding,[6]; [17],120.7% and 135.7%
same,inhibition at 0.1 µM,"[7]; CCR5, read-out: % Inhibition of control agonist response",-1.5%
same,activity at 0.1 µM,"[7]; CCR5, read-out: Agonist Response (% of Control), Mean, antagonist effect, 100 nM, mean of 2",126%
same,Agonist Response (% of Control),[7]; [12],140.8% and 112.0%
same,remaining activity at 0.1 µM,[8]; [15],97.6%
same,inhibition at 0.1 µM,[8]; [16],2%
same,% Of control specific binding,[8]; [17],105.4%
same,remaining activity at 0.1 µM,[8]; [18],89.7%
same,Agonist Response (% of Control),[9]; [12],90.0%
same,inhibition at 0.1 µM,[9]; [13],-0.9%
same,activity at 0.1 µM,[9]; [14],87.7%
same,activity at 0.1 µM,"[9]; read-out: Agonist Response (% of Control), antagonist effect, 100 nM, single replicates 1st and 2nd",85.4%
same,remaining activity at 0.1 µM,[10]; [15],104%
same,inhibition at 0.1 µM,[10]; [16],-4%
same,% Of control specific binding,[10]; [17],106.8%
same,remaining activity at 0.1 µM,[10]; [18],102%
same,remaining activity at 0.1 µM,[11]; [15],97.3%
same,inhibition at 0.1 µM,[11]; [16],3%
same,% Of control specific binding,[11]; [17],98.7%
same,remaining activity at 0.1 µM,[11]; [18],96%
